Reference: patent US20210214285A1, “EMULSION FOR TREATING UREA-CONTAINING FERTILIZERS” (EUROCHEM AGRO GMBH, priority 2018, published 2021)
Values after ≈ are worked out from the molar mass of the structure shown.

How the values were obtained:
[1] = at 20° C.; cited from earlier work
[2] = Comparative experiment: urea treated with DMPP/NBPT emulsion, degradation on storage (HPLC); settings: for amount broken down: after a period of 7 days
[3] = Storage stability test of treated urea fertilizers (NBPT and DMPSA content over time); assay type: physicochemical; settings: urea coated with DMPSA/NBPT emulsion (invention, FIG. 2) versus sequential application (comparative, FIG. 1); stored 90 days under standard conditions in a climate-controlled cabinet
Experimental: 20 kg of granulated urea was initially charged in a mixer. 35 g of the NBPT formulation and 79 g of DMPSA formulation were introduced into a spray bottle and shaken until a homogeneous emulsion had formed. The formulation emulsion was immediately sprayed onto the urea, with intermittent shaking of the spray bottle in order to prevent settling of the emulsion. The mixer was operated for a further 10 minutes until a homogeneous product was obtained.
In a comparative experiment, identical amounts of DMPSA and NBPT were applied to urea. DMPSA formulation was applied first to the urea by the method described above, and the NBPT formulation was applied after drying.
Storage stability tests were conducted for both the urea fertilizers treated. They were stored for a period of 90 days under standard conditions in a climate-controlled cabinet. The NBPT and DMPSA content was determined at time intervals.

Row | SMILES | water solubility [1] [µg/mL] | degradation characteristics [2] | amount broken down [2] | decrease in NBPT and DMPSA content over time [3]
1 | CCCCCC(CO)CCC (stereo not shown) [2-Propylheptan-1-ol] | 58 (≈ 366 µM) | – | – | –
2 | Cc1c[nH]nc1C.O=P(O)(O)O [DMPP, 3,4-dimethylpyrazole phosphate, reference compound] | – | rapid degradation characteristics | about 50% | –
3 | Cc1cn(C(CC(=O)O)C(=O)O)nc1C (stereo not shown) [DMPSA, 2-(N-3,4-dimethylpyrazole)succinic acid] | – | – | – | significantly smaller
4 | CCCCNP(N)(N)=S [NBPT, N-(n-butyl)-thiophosphoric acid triamide] | – | rapid degradation characteristics | 100% | significantly smaller
